Experimental data taken from patent US9174948B2, “Desferrithiocin polyether analogues” (University of Florida Research Foundation, Inc., priority 2007, dated 2015).
“Also recorded” adds a separate entry of the source. Like-named read-outs stand apart in the source and are kept apart here. Marks after values point to notes of the source that are not given here.

Legend:
[1] = Chelator tissue distribution in rodents; type: in vivo, rat (male Sprague-Dawley); settings: rats, sc, 300 μmol/kg
Protocol: Collection of Tissue Distribution Samples from Rodents: Male Sprague-Dawley rats (250-350 g) were given a single sc injection of the monosodium salts of 6 and 9 prepared as described above at a dose of 300 μmol/kg. At times 0.5, 1, 2, and 4 h after dosing (n=3 rats per time point) the animals were euthanized by exposure to CO2 gas. Blood was obtained via cardiac puncture into vacutainers containing sodium citrate. The blood was centrifuged, and the plasma was separated for analysis. The liver, heart, kidneys, and pancreas were then removed from the animals. […] J. Med. Chem. 2006, 49, 2772-2783]. In the current study, tissues from the (S)-3′-(HO)-DADFT-PE (9) and (S)-5′-(HO)-DADFT-PE (6) treated rats were prepared for HPLC analysis by homogenizing them in 0.5 N HClO4 at a ratio of 1:3 (w/v). Then, as a rinse, CH3OH at a ratio of 1:3 (w/v) was added and the mixture was stored at −20° C. for 30 min. This homogenate was centrifuged. The supernatant was diluted with mobile phase A (95% buffer [25 mM KH2PO4, pH 3.0]/5% CH3CN), vortexed, and filtered with a 0.2 μm membrane. Analytical separation was performed on a Discovery RP Amide C16 HPLC system with UV detection at 310 nm as described previously [Bergeron, R. J., Wiegand, J., Weimar, W. R., McManis, J. S., Smith, R. E. and Abboud, K. A. Iron Chelation Promoted by Desazadesferrithiocin Analogues: An Enantioselective Barrier. Chirality 2003, 15, 593-599; Bergeron, R. J., Wiegand, J., Ratliff-Thompson, K. and Weimar, W. R. The Origin of the Differences in (R)- and (S)-Desmethyldesferrithiocin: Iron-Clearing Properties. Ann. N.Y. Acad. Sci. 1998, 850, 202-216]. Mobile phase and chromatographic conditions were as follows: solvent A, 5% CH3CN/95% buffer; solvent B, 60% CH3CN/40% buffer. The concentrations were calculated from the peak area fitted to calibration curves by nonweighted least-squares linear regression with Rainin Dynamax HPLC Method Manager software (Rainin Instrument Co.).

[2] = test system: Non-Iron-Overloaded Rodents; settings: po, cited from earlier work; for Iron-Clearing Efficiency (%): rats, 300 μmol/kg, historical data
[3] = test system: Iron-Overloaded Cebus apella Primates; settings: po, cited from earlier work; for Iron-Clearing Efficiency (%): Cebus apella, 150 μmol/kg, historical data
[4] = test system: kidney proximal and distal tubules; settings: rats, po, 237 μmol/kg/dose twice daily (474 μmol/kg/day) for 7 days; cited from earlier work
[5] = earlier preclinical studies; cited from earlier work
[6] = molecular target: Sudlow types I and II albumin binding sites (Rattus norvegicus, UniProt P02770); test: Ligand-albumin binding in bile duct-cannulated rodents treated with sodium benzoate; settings: rats; for Iron-Clearing Efficiency (%): chelator 300 μmol/kg po plus sodium benzoate 250 mg/kg/dose sc × 6 doses; for fold increase in ICE with sodium benzoate: chelator 300 μmol/kg po, with vs without sodium benzoate
Sequence of Sudlow types I and II albumin binding sites (P02770 25-608): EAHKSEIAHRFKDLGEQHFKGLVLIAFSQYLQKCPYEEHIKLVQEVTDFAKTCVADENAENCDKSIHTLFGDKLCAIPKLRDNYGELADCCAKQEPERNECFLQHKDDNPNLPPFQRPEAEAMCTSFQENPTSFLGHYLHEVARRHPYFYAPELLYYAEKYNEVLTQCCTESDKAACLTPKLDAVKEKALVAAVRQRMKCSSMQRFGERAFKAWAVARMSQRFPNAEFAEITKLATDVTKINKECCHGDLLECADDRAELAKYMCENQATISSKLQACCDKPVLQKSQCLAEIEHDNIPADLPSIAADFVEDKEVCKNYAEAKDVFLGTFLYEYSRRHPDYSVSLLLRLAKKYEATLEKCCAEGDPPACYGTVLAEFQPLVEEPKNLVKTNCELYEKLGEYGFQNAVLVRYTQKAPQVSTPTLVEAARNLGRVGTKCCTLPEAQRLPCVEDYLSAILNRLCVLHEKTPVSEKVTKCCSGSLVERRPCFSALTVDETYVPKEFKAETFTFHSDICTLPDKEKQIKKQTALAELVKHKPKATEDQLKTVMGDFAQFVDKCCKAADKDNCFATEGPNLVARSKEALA
Description: We elected to focus on a drug that is under clinical trials with Genzyme, (S)-4′-(HO)-DADFT (1).

[7] = test system: Non-Iron-Overloaded Rodents; test: Chelator-induced iron clearance in non-iron-overloaded, bile duct-cannulated rats; type: in vivo, rat (male Sprague-Dawley); settings: po, 300 μmol/kg, 1 vs 3, 4 vs 6, 7 vs 9
Description: Chelator-Induced Iron Clearance in Non-Iron-Overloaded Rodents. […] J. Med. Chem. 2006, 49, 2772-2783]. Recall that iron-clearing efficiency (ICE) is defined as (net iron excretion)/(total iron-binding capacity of the chelator), expressed as a percent. The relative ICE values of compounds 1 and 2 were in keeping with their log Papp values: the more lipophilic, the larger log Papp, the more efficient the chelator. […] However, the ICE trend was in keeping with the biliary ferrokinetics (FIG. 3) and liver concentration of the chelators, for example, 3>1 (FIG. 4).
Cannulation of Bile Duct in Non-Iron-Overloaded Rats has been described previously. […]. […] The urine sample(s) was taken at 24 h intervals. Sample collection and handling are as previously described [Bergeron, R. J., Streiff, R. R., Creary, E. A., Daniels, R. D., Jr., King, W., Luchetta, G., Wiegand, J., Moerker, T. and Peter, H. H. A Comparative Study of the Iron-Clearing Properties of Desferrithiocin Analogues with Desferrioxamine B in a Cebus Monkey Model. Blood 1993, 81, 2166-2173; Bergeron, R. J., Streiff, R. R., Wiegand, J., Vinson, J. R. T., Luchetta, G., Evans, K. M., Peter, H. and Jenny, H.-B. A Comparative Evaluation of Iron Clearance Models. Ann. N.Y. Acad. Sci. 1990, 612, 378-393].
In the iron-clearing experiments, the rats were given a single 300 μmol/kg dose of drugs 1-9 orally (po).
J. Med. Chem. 1999, 42, 2432-2440].

[8] = 2:1 complex with Fe(III); cited from earlier work
[9] = listed as (S)-4′-(HO)-DADFT (1)
[10] = listed as (S)-4′-(HO)-DADFT-PE (3)

SMILES	kidney concentration ([1]; 0.5 h) [nmol/g wet weight]	kidney concentration ([1]; 1 h) [nmol/g wet weight]	kidney concentration ([1]; 4 h) [nmol/g wet weight]	Iron-Clearing Efficiency (%) [2] [%]	Iron-Clearing Efficiency (%) [3] [%]	distal tubules under light microscopy [4]	proximal tubules under light microscopy [4]	toxicity / nephrotoxicity in words [5]	Iron-Clearing Efficiency (%) [6] [%]	fold increase in ICE with sodium benzoate [6] [fold]	also measured
C[C@]1(C(=O)O)CSC(c2ccc(O)cc2O)=N1 [Compound 1, (S)-2-(2,4-dihydroxyphenyl)-4,5-dihydro-4-methyl-4-thiazolecarboxylic acid]	361±56	179±4	27±7	1.1±0.8	16.8±7.2	moderate to severe vacuolization	regional, moderate to severe vacuolization in the proximal tubules, a loss of the brush border, and tubular extrusions toward the lumen	no geno- or reproductive toxicity and only mild nephrotoxicity at high doses	12.0±2.6	10.9	pancreas concentration ([1]; 4 h): undetectable; Iron-Clearing Efficiency (%) [2, 9]: 1.1 ± 0.8%; Iron-Clearing Efficiency (%) [6, 9]: 12.0 ± 2.6^b %
COCCOCCOCCOc1ccc(C2=N[C@@](C)(C(=O)O)CS2)c(O)c1 [Compound 3, (S)-4,5-dihydro-2-[2-hydroxy-4-(3,6,9-trioxadecyloxy)phenyl]-4-methyl-4-thiazolecarboxylic acid]	368±74	252±10	34±13	5.5±1.9	25.4±7.4	occasional vacuolization but were otherwise normal	indistinguishable from those of the control animals	profoundly reduced nephrotoxicity; also recorded: profoundly less nephrotoxic	8.8±2.4	1.6	ICE of the polyether relative to that of the parent ligand [7]: 500%; concentration at 0.5 h ([1]; male, Sprague-Dawley, rat, plasma, 0.5 h): 194 ± 60 µM; decrease of liver concentration from 0.5 h to 1 h [1]: 6%; liver concentration ([1]; 0.5 h): 339±35 nmol/g wet weight; drop in plasma concentration relative to 0.5 h ([1]; 1 h): 28%; drop in plasma concentration relative to 0.5 h ([1]; 2 h): 92%; kidney concentration ([1]; 2 h): 41±3 nmol/g wet weight; pancreas concentration ([1]; 2 h): ≈ 30 nmol/g wet weight; drop in plasma concentration relative to 0.5 h ([1]; 4 h): 97%; Iron-Clearing Efficiency (%) [2, 10]: 5.5 ± 1.9%; Iron-Clearing Efficiency (%) [6, 10]: 8.8 ± 2.4^c %
C[C@]1(C(=O)O)CSC(c2ncccc2O)=N1 [DFT, (S)-4,5-dihydro-2-(3-hydroxy-2-pyridinyl)-4-methyl-4-thiazolecarboxylic acid, reference compound]	–	–	–	–	–	–	–	severely nephrotoxic	–	–	ICE ([2]; bile duct-cannulated rodent model): 5.5%; ICE ([3]; iron-overloaded Cebus apella primate): 16%; cumulative formation constant [8]: 4e+29 M⁻¹
